Values of other authors in patent US11123091B2, “Device and methods for treating paranasal sinus conditions” (Intersect ENT, Inc., priority 2005, dated 2021).

Test system: cultured human airway epithelial cells
Conditions: for drug concentration at which dose response curves begin: beginning as low as; for EC50: read-out: EC50 levels of transcriptional response

Row | SMILES | drug concentration at which dose response curves begin | EC50
1 | CCC(=O)O[C@]1(C(=O)SCF)[C@H](C)C[C@H]2[C@@H]3C[C@H](F)C4=CC(=O)C=C[C@]4(C)[C@@]3(F)[C@@H](O)C[C@@]21C [fluticasone propionate] | 10^−12 M | 0.1 nM
2 | C[C@@H]1C[C@H]2[C@@H]3CCC4=CC(=O)C=C[C@]4(C)[C@@]3(Cl)[C@@H](O)C[C@]2(C)[C@@]1(OC(=O)c1ccco1)C(=O)CCl [mometasone furoate] | 10^−12 M | 0.1 nM
